Earlier results as cited in PMC5963526 (Biochimica et biophysica acta, 2018).

Experiments:
[1] = system: rats
[2] = system: retina

Row | SMILES | protection against LIRD [1] | protection of the retina from light damage [2]
1 | CC(C)(C)[N+]([O-])=Cc1ccccc1 [PBN, a-phenyl-N-tert-butylnitrone] | complete protection | 
2 | CC1=C(/C=C/C(C)=C/C=C/C(C)=C\C(=O)O)C(C)(C)CCC1 [13-cis-retinoic acid] |  | protects the retina from light damage
